Experiments:
AChE = AChE immunoreactivity (MICE assay); type: cell-based; details: 10 mM for 3 hours; control and ethanol-exposed cells
Experimental: In vitro experiments were used to examine the effects of ethanol on receptor binding and choline acetyltransferase (ChAT) and acetylcholinesterase (AChE) expression in cerebellar neurons. Primary neuronal cultures were generated with postnatal day 8 rat pup cerebellar tissue (Nikolic et al. Genes Dev. 10:816 (1996)). The cultures were maintained with Dulbecco's modified Eagle's medium (DMEM) supplemented with 5% fetal calf serum, 4 mM glutamine, 100 μM non-essential amino acid mixture (Gibco-BRL, Grand Island, N.Y.), 25 mM KCl, and 9 g/L glucose. […] To examine the effects of membrane cholesterol content on growth factor stimulated neuronal viability and function, identically treated 96-well cultures were stimulated with vehicle, 10 nM insulin, 10 nM IGF-I, or 25 nM IGF-II for 10 minutes and then analyzed for ATP content, or for 16 hours and then used to measure viability and ChAT or AChE immunoreactivity with the MICE assay (de la Monte et al., Biotechniques 26:1073 (1999)). ATP content was measured with the ATPLite assay (Packard, Meriden, Conn.). Viability was measured using the CyQuant assay (Molecular Probes, Eugene, Oreg.). Immunoreactivity was measured directly in the cultured wells using the microtiter immunocytochemical ELISA (MICE) assay (de la Monte et al., Biotechniques 26:1073 (1999)). […]

[1] = system: primary cerebellar neuron cultures; details: 10 mM for 3 hours; control and ethanol-exposed cultures
Experimental: In vitro experiments were used to examine the effects of ethanol on receptor binding and choline acetyltransferase (ChAT) and acetylcholinesterase (AChE) expression in cerebellar neurons. Primary neuronal cultures were generated with postnatal day 8 rat pup cerebellar tissue (Nikolic et al. Genes Dev. 10:816 (1996)). The cultures were maintained with Dulbecco's modified Eagle's medium (DMEM) supplemented with 5% fetal calf serum, 4 mM glutamine, 100 μM non-essential amino acid mixture (Gibco-BRL, Grand Island, N.Y.), 25 mM KCl, and 9 g/L glucose. Ethanol treatment was accomplished by placing the cultures (seeded in 6-well dishes or 96-well plates) in sealed chambers in which 50 mM ethanol was vaporized from a reservoir tray (de la Monte et al. Alcohol Clin. Exp. Res. 24:716 (2000); Banerjee et al. Alcohol Clin. Exp. Res. 22:2093 (1998)). Control cultures were identically treated but with water added to the reservoir tray. The chambers were flushed with gas containing 75% nitrogen, 20% oxygen, and 5% carbon dioxide. After 96 hours incubation at 37° C., the cells were harvested to measure insulin, IGF-I, and IGF-II receptor binding. Alternatively, the cells were serum-starved for 12 hours and then stimulated with 10 nM insulin, […], 25 nM IGF-II, or vehicle for 16 hours, and RNA was harvested to measure ChAT and AChE expression. Parallel 96-well cultures stimulated with growth factors for 10 minutes were used to measure ATP, or for 16 hours to measure viability, and ChAT or AChE immunoreactivity. […] To examine the effects of membrane cholesterol content on growth factor stimulated neuronal viability and function, identically treated 96-well cultures were stimulated with vehicle, 10 nM insulin, 10 nM IGF-I, or 25 nM IGF-II for 10 minutes and then analyzed for ATP content, or for 16 hours and then used to measure viability and ChAT or AChE immunoreactivity with the MICE assay (de la Monte et al., Biotechniques 26:1073 (1999)). ATP content was measured with the ATPLite assay (Packard, Meriden, Conn.). Viability was measured using the CyQuant assay (Molecular Probes, Eugene, Oreg.). Immunoreactivity was measured directly in the cultured wells using the microtiter immunocytochemical ELISA (MICE) assay (de la Monte et al., Biotechniques 26:1073 (1999)).
The effects of cholesterol or MβCD treatment on neuronal viability (FIGS. 19A-19C), ATP production (energy metabolism; FIGS. 19D-19F), ChAT (FIGS. […]) and AChE (FIGS. 19J-19L) immunoreactivity were examined in cells that were treated as described above and stimulated 12 hours with vehicle (control), 10 nM insulin, 10 nM IGF-I, or 25 nM IGF-II in serum-free medium. […] Viability was measured using the CyQuant assay and ATP content was measured using the ATPLite assay. […]

Molecule | mean levels of AChE (AChE) | mitochondrial function (ATP content) [1] | neuronal viability [1]
CC(C)CCC[C@@H](C)[C@H]1CC[C@H]2[C@@H]3CC=C4C[C@@H](O)CC[C@]4(C)[C@H]3CC[C@]12C [cholesterol] | significantly increased | broadly reduced | broadly reduced
Methyl-β-cyclodextrin [MβCD] | significantly increased | broadly reduced | broadly reduced
